Measurements published in patent US8710095B2, “Drugs for prophylaxis or mitigation of taxane-induced neurotoxicity” (Bionumerik Pharmaceuticals, Inc., priority 2002, dated 2014).

Experiments:
[1] = tested on: patients with advanced Non-Small Cell Lung Cancer (NSCLC); experiment: Phase I study in Japan: 2,2′-dithiobis ethane sulfonate with paclitaxel and cisplatin, incidence of neurotoxicity; assay type: in vivo, human; conditions: Japan (NSCLC) (n = 19), all doses 4.1 to 41.0 g/m^2
Protocol: In the Phase I study in Japan, patients received the following treatment regimen every 3 weeks: a single dose of paclitaxel (175 mg/m^2) administered intravenously over 3 hours, pre-cisplatin saline hydration for 1 hour, immediately followed by a single dose of 2,2′-dithiobis ethane sulfonate (4.1, 8.2, 12.3, 18.4, 27.6 and 41.0 g/m^2, depending on cohort assignment) administered intravenously over 30 minutes, a single dose of cisplatin (75 mg/m^2) administered intravenously over 1 hour and subsequently post-cisplatin saline hydration for 1.5 hours.
A total of 19 patients with advanced Non-Small Cell Lung Cancer (NSCLC) have been enrolled and treated in this study at four clinical sites in Japan. Each patient was to receive a total of three treatment cycles during this study. A total of 43 treatment courses of 2,2′-dithiobis ethane sulfonate with chemotherapy were given to 19 patients giving an average of 2.3 treatment cycles per patient. A total of 11 patients (57.9%) completed all three treatment cycles while 8 patients (42.1%) discontinued therapy prior to completing the three treatment cycles.
(§1) The number and percentage of patients who reported neurotoxicity in the Phase I studies compared with historical control data are summarized on the next page. Severity grades were measured according to NCI-CTC standards.

[2] = tested on: patients with advanced solid tumors; experiment: Phase I study in the United States: 2,2′-dithiobis ethane sulfonate with paclitaxel and cisplatin, incidence of neurotoxicity; assay type: in vivo, human; conditions: United States (n = 36), all doses 4.1 to 41.0 g/m^2
Protocol: In the Phase I study in the United States, human patients in Stage I received the following treatment regimen every 3 weeks: a single dose of paclitaxel (175 mg/m^2) administered intravenously over 3 hours, pre-cisplatin saline hydration (1000 mL 0.9% NaCl) for 2 hours, followed immediately by a single dose of 2,2′-dithiobis ethane sulfonate (4.1, 8.2, 12.3, 18.4, 27.6 and 41.0 g/m^2, depending on cohort assignment) administered intravenously over 15 or 30 minutes, a single dose of cisplatin (75 mg/m^2) administered intravenously over 1 hour and subsequently post-cisplatin saline hydration (500 cc 0.9% NaCl) for 1 hour.
A total of 36 patients (22 patients in Stage I and 14 patients in Stage II) with advanced solid tumors have been enrolled and treated in this study at two clinical sites in the United States. A total of 138 treatment courses of BNP7787 with chemotherapy were given to 36 patients giving an average number of 3.8 treatment cycles per patient. A total of 13 patients (36.1%) completed at least five treatment cycles while 5 patients (13.9%) completed at least seven treatment cycles.
as §1

Question: What does the source list for O=S(=O)([O-])CCSSCCS(=O)(=O)[O-].[Na+].[Na+] [2,2′-dithiobis ethane sulfonate]?
Answer: Incidence of neurotoxicity, Neurotoxicity Grade (NCI-CTC) 1 [1]: 13 (68.4) Number (%) of Patients; Incidence of neurotoxicity, Neurotoxicity Grade (NCI-CTC) 2 [1]: 1 (5.2) Number (%) of Patients; Incidence of neurotoxicity, Neurotoxicity Grade (NCI-CTC) 3 [1]: 0 (0.0) Number (%) of Patients; Incidence of neurotoxicity, Neurotoxicity Grade (NCI-CTC) 4 [1]: 0 (0.0) Number (%) of Patients; Incidence of neurotoxicity, Neurotoxicity Grade (NCI-CTC) ≧2 [1]: 1 (5.2) Number (%) of Patients; Incidence of neurotoxicity, Overall (all grades) [1]: 14 (73.6) Number (%) of Patients; Incidence of neurotoxicity, Neurotoxicity Grade (NCI-CTC) 1 [2]: 8 (22.2) Number (%) of Patients; Incidence of neurotoxicity, Neurotoxicity Grade (NCI-CTC) 2 [2]: 8 (22.2) Number (%) of Patients; Incidence of neurotoxicity, Neurotoxicity Grade (NCI-CTC) 3 [2]: 0 (0.0) Number (%) of Patients; Incidence of neurotoxicity, Neurotoxicity Grade (NCI-CTC) 4 [2]: 0 (0.0) Number (%) of Patients; Incidence of neurotoxicity, Neurotoxicity Grade (NCI-CTC) ≧2 [2]: 8 (22.2) Number (%) of Patients; Incidence of neurotoxicity, Overall (all grades) [2]: 16 (44.0) Number (%) of Patients
